Results on 4 compounds are retold here after patent US9616058B2, “Potent selective LSD1 inhibitors and dual LSD1/MAO-B inhibitors for antiviral use” (Oryzon Genomics, S.A., priority 2010, dated 2017).

Holding throughout (type): biochemical
In experiment [1] the target is T1, Human recombinant monoamine oxidase MAO-B (Homo sapiens, UniProt P27338).
T1 construct: purchased Sigma Aldrich
T1 sequence (P27338 1-520): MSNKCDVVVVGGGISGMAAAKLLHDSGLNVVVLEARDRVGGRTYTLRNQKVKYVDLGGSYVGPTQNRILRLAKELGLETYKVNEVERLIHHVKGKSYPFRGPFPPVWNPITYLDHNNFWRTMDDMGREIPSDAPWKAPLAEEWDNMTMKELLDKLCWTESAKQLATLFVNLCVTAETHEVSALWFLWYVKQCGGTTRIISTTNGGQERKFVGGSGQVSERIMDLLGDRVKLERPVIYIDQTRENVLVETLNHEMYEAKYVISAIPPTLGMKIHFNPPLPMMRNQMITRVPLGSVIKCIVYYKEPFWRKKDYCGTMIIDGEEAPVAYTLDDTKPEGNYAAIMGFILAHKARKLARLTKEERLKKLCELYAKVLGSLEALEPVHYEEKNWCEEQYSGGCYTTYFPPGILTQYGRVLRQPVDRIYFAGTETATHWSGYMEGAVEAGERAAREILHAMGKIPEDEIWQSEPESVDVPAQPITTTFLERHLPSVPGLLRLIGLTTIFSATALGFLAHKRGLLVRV
Kind of experiment: Monoamine oxidase assay (kynuramine fluorescence), MAO-B. Conditions: Ki measured at Vmax/2. The method, then:
(§1) MOAs catalyze the oxidative deamination of 1°, 2′ and 3° amines.
(§2) The Ki of each inhibitor was measure at Vmax/2.

Experiment [2] concerns the target T2, Human recombinant LSD1 protein (Homo sapiens, UniProt O60341).
T2 construct: purchased BPS Bioscience Inc
The experiment can be described thus: LSD1 demethylase inhibition assay (Amplex Red peroxide/peroxidase-coupled). The following applies: Ki (IC50) estimated at half of the maximum activity. The source says: The compounds of the invention can be tested for their ability to inhibit LSD1.
The conversion of the Amplex®.

Experiment [3] concerns the target T3, Human recombinant monoamine oxidase MAO-A (Homo sapiens, UniProt P21397).
T3 construct: purchased Sigma Aldrich
T3 sequence (P21397 1-527): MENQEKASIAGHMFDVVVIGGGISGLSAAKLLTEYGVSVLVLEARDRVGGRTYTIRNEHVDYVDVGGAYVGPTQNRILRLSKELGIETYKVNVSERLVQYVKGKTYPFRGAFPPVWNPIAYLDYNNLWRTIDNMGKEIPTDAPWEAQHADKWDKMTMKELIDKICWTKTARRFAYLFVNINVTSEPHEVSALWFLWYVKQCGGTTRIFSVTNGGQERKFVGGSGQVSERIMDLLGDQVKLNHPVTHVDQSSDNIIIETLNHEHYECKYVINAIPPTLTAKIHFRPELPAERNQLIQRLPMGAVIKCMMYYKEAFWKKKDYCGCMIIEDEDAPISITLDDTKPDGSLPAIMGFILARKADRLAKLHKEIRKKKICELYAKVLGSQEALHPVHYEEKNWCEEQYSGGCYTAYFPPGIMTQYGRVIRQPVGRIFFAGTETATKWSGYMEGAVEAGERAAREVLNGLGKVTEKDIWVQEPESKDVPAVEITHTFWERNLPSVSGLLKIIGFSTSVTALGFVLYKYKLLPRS
Kind of experiment: Monoamine oxidase assay (kynuramine fluorescence), MAO-A. Conditions: Ki measured at Vmax/2. The method, then:
as §1, §2

By Ki is commonly meant a dissociation constant, usually derived from enzyme kinetics or from competition with a known ligand. For the compound `N[C@@H]1CCN(CCN[C@H]2CC2c2ccccc2)C1` (some centres unmarked) [1(A)], the Ki in experiment [1] is above 40 µM; in experiment [2], below 1 µM; in experiment [3], above 40 µM.
In the case of `c1ccc(C2C[C@@H]2NCCN2CCNCC2)cc1` (some centres unmarked) [1(B)], the results for the Ki in experiment [1], in experiment [2] and in experiment [3] were above 30 µM, below 1 µM and above 30 µM, respectively.
In the case of `NC(=O)CN[C@H]1CC1c1ccc(OCc2cc(F)cc(F)c2)cc1` (some centres unmarked) [2(B)], the inhibition constant Ki in experiment [3] fell in the range of 20 to 30 µM.
Still for that read-out and setting: the result for `c1ccc(C2C[C@@H]2NCCNC2CC2)cc1` (some centres unmarked) [Compound 2(A)] reads around 10 µM.
